The record followed here is patent US20170260134A1, “Ceramide Analogs” (Augusta University Research Institute, Inc., priority 2016, published 2017).

Entries after “also recorded” stand apart in the source; their conditions may differ.

The subject of data set [1] is SW480, RKO and HCT116 cells. The data set is described as follows: Tumor cell apoptosis assay: ceramide analog at sublethal dose plus FasL (Annexin V/PI). The class given is cell-based, human. The conditions noted are these: for increase of cell sensitivity to FasL-induced apoptosis: sublethal dose of analog (10 μM) plus FasL (10 ng/ml SW480, HCT; 100 ng/ml RKO); for activity in human colon carcinoma: summary statement. As to the method: FIG. 5A is a bar graph of Percent Apoptotic cell death of SW480 cells treated with the indicated ceramide analogs (10 μM), with (10 ng/ml) or without FasL and treated with FasL alone. FIG. 5B is a bar graph of Percent Apoptotic cell death of RKO cells treated with the indicated ceramide analogs (10 μM), with (100 ng/ml) or without FasL and treated with FasL alone. FIG. 5C is a bar graph of Percent Apoptotic cell death of HCT cells treated with the indicated ceramide analogs (10 μM), with (10 ng/ml) or without FasL and treated with FasL alone. % apoptotic cell death was calculated as % Annexin V^+PI^+ cells in the presence of ceramide analogs plus MegaFasL−% Annexin V^+PI^+ cells in the control group. Column: mean; Bar: SD.
Tumor cells were cultured in the presence of MegaFasL at the indicated concentrations as previously described Hu, X. et al. Deregulation of apoptotic factors Bcl-xL and Bax confers apoptotic resistance to myeloid-derived suppressor cells and contributes to their persistence in cancer. J Biol Chem 288, 19103-19115, doi:10.1074/jbc.M112.434530M112.434530 [pii] (2013). FasL (Mega-Fas Ligand®, kindly provided by Drs. Steven Butcher and Lars Damstrup at Topotarget A/S, Denmark) is a recombinant fusion protein that consists of three human FasL extracellular domains linked to a protein backbone comprising the dimmer-forming collagen domain of human adiponectin. The Mega-Fas Ligand was produced as a glycoprotein in mammalian cells using Good Manufacturing Practice compliant process in Topotarget A/S (Copenhagen, Denmark). For tumor cell apoptosis analysis, cells were stained with Alexa Fluor 647 Annexin V (Biolegend) in Annjixin V-binding buffer (10 mM Hepes, pH 7.4, 140 mM NaCl, 2.5 mM CaCl2) for 30 min at 4° C. Propidium Iodide was then added to the cell suspension, and cells were analyzed by flow cytometry as previously described Bardhan, K. et al. IFNgamma induces DNA methylation-silenced GPR109A expression via pSTAT1/p300 and H3K18 acetylation in colon cancer. Cancer Immunol Res, doi:canimm.0164.2014 [pii]2326-6066.CIR-14-0164 [pii] 10.1158/2326-6066.CIR-14-0164 (2015).
Next, the efficacy of the ceramide analogs was tested at their sublethal doses in enhancement of FasL-induced apoptosis using SW480, RKO and HCT116 cells. Tumor cells were treated with a sublethal dose of each of these 20 ceramide analogs along or ceramide analog plus FasL, and analyzed for apoptosis. […] Therefore, six novel ceramide analogs were identified that can effectively enhance the efficacy of FasL-induced apoptosis in human colon carcinoma cells.

The subject of a further data set is CT26 cells. Kind of data set: CT26 colon carcinoma lung metastasis in BALB/c mice. The data set is classed as in vivo. The conditions noted are these: 25 and 50 kg body weight, intraperitoneal, days 8, 10 and 12 after tumor injection. The method, then:
FIG. 8 is a bar graph of number of tumor nodules/lung in lungs taken from BALB/c mice injected with CT26 cells (2.5×10^5 cell per mouse). Tumor-bearing mice were treated with the indicated 5 ceramide analogs (25 and 50 […]) by intraperitoneal injection at days 8, 10 and 12 after tumor injection. CT26 cells (2.5×10^5 cell per mouse) were injected to BALB/c mice on […]. Tumor-bearing mice were treated with the 5 ceramide analogs (25 and 50 […]) by intraperitoneal injection at days 8, 10 and 12 after tumor injection. […]. Mouse lungs were inflated with ink and fixed. […] White dots are tumor nodules. Bottom panel: quantification of tumor nodule number in the lungs.

Another data set concerns SW480 cells. The data set is described as follows: Cell viability (MTT) assay, cytotoxicity of ceramide analogs. The class given is cell-based, human. The conditions noted are these: three days, at the doses tested. The method, then: FIG. 4 is a bar graph of Percent Cell Viability (MTT assay) showing. cytotoxicity of the indicated ceramide analogs to human colon carcinoma cells. Human colon carcinoma SW480 cells were cultured in the presence of ceramide analogs at the indicated concentrations for three days. Cell viability was determined by MTT assays. % cell viability of control was set at 100% and cell viability of treatment groups was calculated as % of the control groups. IC50 was calculated using GraphPad Prism program.
Cells were seeded in 96-well plates at 2×10^3 cells/well in 100 μl culture medium for 3 days. Cell viability assays were performed using the MTT cell proliferation assay kit (ATCC, Manassas, Va.) according to the manufacturer's instructions.
The structures and functions of ceramide analogs Cheng, J. C. et al. Radiation-induced acid ceramidase confers prostate cancer resistance and tumor relapse. J Clin Invest 123, 4344-4358, doi:10.1172/JCI6479164791 [pii] (2013); and Paschall, A. V. et al. Ceramide targets xIAP and cIAP1 to sensitize metastatic colon and breast cancer cells to apoptosis induction to suppress tumor progression. BMC Cancer 14, 24, doi:10.1186/1471-2407-14-241471-2407-14-24 [pii] (2014) were analyzed and synthesized twenty ceramide analogs to be developed into Fas sensitizers (Supplemental Table 1). […]

Another data set concerns CT26 tumor cells. The data set is described as follows: CTL cytotoxicity assay with perforin-deficient CTLs (pfpCTL). The data set is classed as cell-based. The conditions noted are these: analog alone at the dose used. The method, then:
FIG. 7A is a line graph of percent tumor cell lysis verus pfpCTLs E/T ratio. Cells were gated for CFSE^+ tumor cells. The gated cells were then analyzed for PI^+ cells. % tumor cell lysis was calculated as % CFSE^+PI^+ cells in the presence of CTLs−% CFSE^+PI^+ cells in the absence of CTLs. FIG. 7B is a bar graph of percent tumor cell lysis Cells were gated for CFSE^+ tumor cells. The gated cells were then analyzed for PI^+ cells. % tumor cell lysis was calculated as % CFSE^+PI^+ cells in the presence of ceramide analogs or ceramide analogs plus pfpCTLs−% CFSE^+PI^+ cells in the absence of ceramide analogs or ceramide analogs plus pfpCTLs. Column: mean; Bar: SD. Bolded ** indicated p<0.01 between ceramide analog+pfpCTLs group and pfpCTLs only group, and green ** indicates p<0.01 between ceramide analog+pfpCTLs group and ceramide analog only group. Column: mean; Bar: SD.
Perforin-deficient CTLs were generated and maintained by weekly stimulation with AH1 peptide as previously described Liu, K., Caldwell, S. A., Greeneltch, K. M., Yang, D. & Abrams, S. I. CTL Adoptive Immunotherapy Concurrently Mediates Tumor Regression and Tumor Escape. J Immunol 176, 3374-3382 (2006). […] Cells were analyzed immediately by flow cytometry. CFSE^+ tumor cells were gated and analyzed for PI^+ cells. […]

For the compound `CCCCCCCCCCCCCNC(=O)[C@@H](NC(=O)c1cc2c(F)cccc2[nH]1)[C@@H](C)O` [IG4], in data set [1], the “increase of cell sensitivity to FasL-induced apoptosis” value (“increase of cell sensitivity” below) is “effectively increase; also recorded: significant efficacy” and the “activity in human colon carcinoma” value is “potent activity”. In addition, the “established colon carcinoma lung metastasis (tumor nodules/lung)” value in the data set on CT26 cells was “suppress”.
Consider `CCCCCCCCCCCCN(C)C(=O)[C@@H](NC(=O)c1cc2cc(Br)ccc2[nH]1)[C@@H](C)O` [IG10], for which the cytotoxicity entry in the data set with SW480 cells was “no cytotoxicity”.
As for `CCCCCCCCCCCCCNC(=O)[C@@H](NC(=O)c1cc2c(OC)cccc2[nH]1)[C@@H](C)O` [IG8], in data set [1], the “increase of cell sensitivity” value is given as “effectively increase; also recorded: significant efficacy” and the “activity in human colon carcinoma” value is given as “potent activity”. The “cytotoxicity to CT26 tumor cells” value in the data set on CT26 tumor cells is recorded as “high cytotoxicity”.
Consider `CCCCCCCCCCCCN(C)C(=O)[C@@H](NC(=O)c1cc2c(F)cccc2[nH]1)[C@@H](C)O` [IG19], for which the “increase of cell sensitivity” value in data set [1] is “effectively increase; also recorded: significant efficacy”. Further, the “established colon carcinoma lung metastasis (tumor nodules/lung)” value with CT26 cells is on record as “suppress”.
In the case of `CCCCCCCC/C=C\CCCCCCCC(=O)N[C@H](CO)[C@@H](O)c1ccc([N+](=O)[O-])cc1` [IG17, N-((1S,2R)-1,3-dihydroxy-1-(4-nitrophenyl)propan-2-yl)oleamide], in data set [1], the “increase of cell sensitivity” value was “effectively increase; also recorded: significant efficacy” and the “activity in human colon carcinoma” value is “potent activity”. The “established colon carcinoma lung metastasis (tumor nodules/lung)” value in the data set on CT26 cells was “suppress”.
For the compound `CCCCCCCCCCCCN(C)C(=O)[C@@H](NC(=O)c1cc2cc(C)ccc2[nH]1)[C@@H](C)O` [IG9], the “activity in human colon carcinoma” value in data set [1] is on record as “potent activity”.
For `CCCCCCCCCCCCN(C)C(=O)[C@@H](NC(=O)c1cc2cc(F)ccc2[nH]1)[C@@H](C)O` [IG14], in data set [1], the “increase of cell sensitivity” value is recorded as “effectively increase; also recorded: significant efficacy” and the “activity in human colon carcinoma” value is recorded as “potent activity”.
As to `CCCCCCCCCCCCCNC(=O)[C@@H](NC(=O)c1cc2cc(OC)ccc2[nH]1)[C@@H](C)O` [IG7], in data set [1], the “increase of cell sensitivity” value is “effectively increase; also recorded: significant efficacy” and the “activity in human colon carcinoma” value was “potent activity”. Also, in the data set with CT26 cells, the “established colon carcinoma lung metastasis (tumor nodules/lung)” value is recorded as “suppress”.
As for `CCCC/C=C/CCCCCCCC(=O)N[C@H](CO)[C@@H](O)c1ccc([N+](=O)[O-])cc1` [IG20, (E)-N-((1S,2R)-1,3-dihydroxy-1-(4-nitrophenyl)propan-2-yl)tetradec-9-enamide], the cytotoxicity entry with SW480 cells is on record as “no cytotoxicity”.
